Experimental data: PMC10060354, “Discovery of a small molecule ligand of FRS2 that inhibits invasion and tumor growth” (Cellular Oncology, 2022)
Converted amounts (≈) assume the structure as drawn. Where two headings read alike, the source gives them in different places.

Key:
DAOY cells = test: Spheroid invasion assay (SIA), bFGF-induced collagen I invasion; type: cell-based, human; details: for functional activity in SIA (result in words): DAOY, bFGF-induced, 1, 5 and 10 µM; for EC50: Daoy
Outline: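 Spheroids formed over 24–72 h were embedded in collagen I (final 1.75 mg/ml) and stimulated with bFGF (100 ng/ml unless stated), HGF 30 ng/ml or EGF 20 ng/ml with compound in DMSO. Invasion distance was quantified 24–48 h after embedding.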

[1] = tested on: bFGF-sensitive (M059K, RT-112, SW780) and bFGF-insensitive (SKOV3, AGS and HCT116) cell lines; test: SIA, collagen I invasion in panel of human cancer cell models; type: cell-based; details: 10 µM
Procedure: 1000—2500 cells/well in 100 μl were seeded in 96 well Corning® Spheroid microplate (CLS4520, Sigma-Aldrich) or in cell-repellent 96 well microplate (650,790, Greiner Bio-one). SIA and analysis was performed as described before. In brief: After spheroid formation (24 – 72 h after seeding), 70 µl medium was removed and replaced with the collagen mixture (2.5 mg/ml Pure Col Collagen I (Advanced Biomatrix)), DMEM 1x (from 10 × stock, Sigma, D2429) and 0.4% Sodium bicarbonate (Sigma, S8761)), resulting in a final collagen concentration of 1.75 mg/ml. Embedded spheroids were stimulated with bFGF (100 ng/ml if not otherwise stated), HGF (30 ng /ml) or EGF (20 ng/ml) and distance of invaded cells quantified 24 – 48 h after embedding. Compounds and BGJ398 were added in Dimethylsulfoxid (DMSO) and corresponding DMSO concentrations were used in control samples.

[2] = Semi-thermodynamic solubility; type: physicochemical; details: for solubility / solubility thermodynamic: PBS, aqueous buffer, thermodynamic from solid; for solubility: Room Temp, Overnight, LC-MSMS; for solubility (result in words): Supplementary Table 2; for solubility thermodynamic: overnight; for solubility thermodynamic / Solubility (class in words): summary sheet
Outline: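 Compound solution agitated overnight at ambient temperature, then centrifuged twice (30 min, 3000 rpm, RT). Supernatant diluted in 50% methanol/water with internal standard and quantified by LC–MS/MS. Solubility derived from a linear or quadratic fit of the standard curve.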

[3] = Microsomal metabolic stability; type: in vitro ADME; details: human, pooled liver microsomes; for half-life at 1 µM: pH 7.4, liver microsomes; for microsomal CLint at 1 µM: pH 7.4, read-out: Metabolic stability - Intrinsic clearance (CI)
Outline: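 Pooled liver microsomes were incubated with NADPH for 0, 5, 15, 30 and 45 min; the minus-NADPH control (0.1 M phosphate pH 7.4) ran 45 min only. Reactions were stopped in acetonitrile and analysed by LC–MS/MS. t1/2 = 0.693/k came from the ln peak-area-ratio versus time slope, and CLint (μl/min/mg protein) was derived from it.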

[4] = CaCo-2 permeability (bi-directional); details: human
Outline: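 Caco-2 monolayers (passage 40–60) cultured 20 days on Transwells, equilibrated 40 min in HBSS; compound dosed apically (A-B) or basolaterally (B-A) with 1% v/v DMSO and lucifer yellow integrity marker, in duplicate. LC–MS/MS quantification; Papp from permeation rate, C0 and monolayer area; efflux ratio = Papp(B-A)/Papp(A-B).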

[5] = tested on: HepG2 human hepatocellular carcinoma cells; test: Cell viability (cytotoxicity, MTT) using HepG2; type: cell-based; details: for MEC: 72h, 3 replicas, NR = No response (Summary sheet); for MTT (MEC) Minimum effective concentration: 72 h, summary sheet
Outline: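 Compounds were tested at 8 concentrations in triplicate on HepG2 cells plated 24 h beforehand, with 72 h exposure in 1% DMSO medium. MTT was loaded 1 h before the end, solubilized in DMSO and read at 570 nm. Minimum effective concentration is the lowest concentration exceeding the significance level, given dose-response or two consecutive points above it.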

[6] = Homo sapiens, DAOY cells, n = 3 technical replicas, read-out: EC50 for the inhibition of bFGF-induced collagen I invasion
[7] = read-out: Solubility Replicate 1
[8] = read-out: Solubility Replicate 2
[9] = read-out: Solubility Replicate 3
[10] = read-out: Solubility Replicate 4
[11] = read-out: t1/2 of clearance (CL1/2), in vitro
[12] = Caco-2, Mean Papp A-B, Caco-2, summary sheet
[13] = Caco-2, Mean Papp B-A, Caco-2, summary sheet
[14] = Caco-2, pH 7.4, Mean % Recovery A2B, HBSS/HBSS, pH 7.4/7.4
[15] = Caco-2, pH 7.4, Mean % Recovery B2A, HBSS/HBSS, pH 7.4/7.4
[16] = Caco-2, pH 7.4, Mean Papp A2B, HBSS/HBSS, pH 7.4/7.4
[17] = Caco-2, pH 7.4, Mean Papp B2A, HBSS/HBSS, pH 7.4/7.4
[18] = Caco-2, pH 7.4, Papp A2B Replicate 1, HBSS/HBSS, pH 7.4/7.4
[19] = Caco-2, pH 7.4, Papp A2B Replicate 2, HBSS/HBSS, pH 7.4/7.4
[20] = Caco-2, pH 7.4, Papp B2A Replicate 1, HBSS/HBSS, pH 7.4/7.4
[21] = Caco-2, pH 7.4, Papp B2A Replicate 2, HBSS/HBSS, pH 7.4/7.4

solubility ([2]; read-out: Mean Solubility) [µM] | solubility [2, 7] [µM] | solubility [2, 8] [µM] | solubility [2, 9] [µM] | solubility thermodynamic [2] [µM] | Solubility (class in words) [2] | half-life at 1 µM ([3]; read-out: t1/2) [min] | microsomal CLint at 1 µM [3] [µL/min/mg] | efflux ratio at 120 min, 10 μM ([4]; Caco-2) | Papp A→B at 120 min, 10 μM [4, 12] [×10⁻⁶ cm/s] | Papp B→A at 120 min, 10 μM [4, 13] [×10⁻⁶ cm/s] | efflux ratio at 120 min, 10 μM ([4]; Caco-2, pH 7.4) | recovery at 120 min, 10 µM [4, 14] [%] | recovery at 120 min, 10 µM [4, 15] [%] | Papp A→B at 120 min, 10 μM [4, 16] [×10⁻⁶ cm/s] | Papp B→A at 120 min, 10 μM [4, 17] [×10⁻⁶ cm/s] | Papp A→B at 120 min, 10 μM [4, 18] [×10⁻⁶ cm/s] | Papp A→B at 120 min, 10 μM [4, 19] [×10⁻⁶ cm/s] | Papp B→A at 120 min, 10 μM [4, 20] [×10⁻⁶ cm/s] | Compound | collagen I invasion across cancer cell lines (result in words) [1] | other results
> 100 | > 100 | > 100 | > 100 | > 100 | Freely | 5.52 | 251 | 5.13 | 4.53 | 23.2 | 5.13 | 102 | 65.6 | 4.53 | 23.2 | 3.77 | 5.28 | 22 | Cc1[nH]nc(-c2ccc(O)c(C)c2O)c1-c1nc2ccccc2s1 [Compound E12] | inhibited collagen I invasion only in bFGF-sensitive cell lines M059K, RT-112 and SW780 | functional activity in SIA (result in words) (DAOY cells): comparable inhibition of invasion; EC50 (DAOY cells; [6]): 18.2 µM; solubility [2, 10]: > 100 µM; solubility (result in words) [2]: freely soluble; half-life at 1 µM [3, 11]: 5.52 min; Papp B→A at 120 min, 10 μM [4, 21]: 24.4 ×10⁻⁶ cm/s; toxicity in the MTT assay (result in words) [5]: moderate toxicity; MEC [5]: 15.6 µM; MTT (MEC) Minimum effective concentration [5]: 15.6 µM
> 100 | > 100 | > 100 | > 100 | > 100 | Freely | 3.91 | 355 | 8.01 | 4.79 | 38.3 | 8.01 | 73.1 | 104 | 4.79 | 38.3 | 4.98 | 4.59 | 39.9 | COc1ncc(C(C)NC2CC(C)(C)NC(C)(C)C2)cc1Cl (centres unmarked) [Compound 3.3] | significant repression of collagen I invasion only in SKOV3 and M059K cells | EC50 (DAOY cells; [6]): 14.3 µM; solubility [2, 10]: > 100 µM; Papp B→A at 120 min, 10 μM [4, 21]: 36.8 ×10⁻⁶ cm/s; MEC [5]: 75.8 µM; MTT (MEC) Minimum effective concentration [5]: 75.8 µM

Compound | solubility ([2]; read-out: Mean Solubility) [µM] | solubility [2, 7] [µM] | solubility [2, 8] [µM] | solubility [2, 9] [µM] | solubility thermodynamic [2] [µM] | Solubility (class in words) [2] | half-life at 1 µM ([3]; read-out: t1/2) [min] | microsomal CLint at 1 µM [3] [µL/min/mg] | efflux ratio at 120 min, 10 μM ([4]; Caco-2) | Papp A→B at 120 min, 10 μM [4, 12] [×10⁻⁶ cm/s] | Papp B→A at 120 min, 10 μM [4, 13] [×10⁻⁶ cm/s] | efflux ratio at 120 min, 10 μM ([4]; Caco-2, pH 7.4) | recovery at 120 min, 10 µM [4, 14] [%] | recovery at 120 min, 10 µM [4, 15] [%] | Papp A→B at 120 min, 10 μM [4, 16] [×10⁻⁶ cm/s] | Papp B→A at 120 min, 10 μM [4, 17] [×10⁻⁶ cm/s] | Papp A→B at 120 min, 10 μM [4, 18] [×10⁻⁶ cm/s] | Papp A→B at 120 min, 10 μM [4, 19] [×10⁻⁶ cm/s] | Papp B→A at 120 min, 10 μM [4, 20] [×10⁻⁶ cm/s] | collagen I invasion across cancer cell lines (result in words) [1] | other results
O=[N+]([O-])c1c(Cl)cc(O)c2c1C1C=CCC1C(c1ccc(Cl)cc1)N2 (centres unmarked) [Compound 7] | 10.4 (≈ 3.92 µg/mL) | 11.8 (≈ 4.45 µg/mL) | 9.33 (≈ 3.52 µg/mL) | 9.97 (≈ 3.76 µg/mL) | 10.4 (≈ 3.92 µg/mL) | Sparingly | 3.62 | 383 | 2.84 | 3.59 | 10.2 | 2.84 | 15.3 | 37.8 | 3.59 | 10.2 | 3.41 | 3.76 | 8.39 | inhibited collagen I invasion in both bFGF-sensitive and bFGF-insensitive cell lines | functional activity in SIA (result in words) (DAOY cells): performed equally well as 3.18; EC50 (DAOY cells; Homo sapiens, 100 ng/ml bFGF, read-out: Collagen I invasion EC50): 2.54 µM; IC50 (DAOY cells; Homo sapiens, DAOY wt): 2.76 µM; solubility (result in words) [2]: sparingly soluble; half-life at 1 µM [3, 11]: 3.62 min; Papp B→A at 120 min, 10 μM [4, 21]: 12 ×10⁻⁶ cm/s; toxicity in the MTT assay (result in words) [5]: moderately toxic; MEC [5]: 4.38 µM; MTT (MEC) Minimum effective concentration [5]: 4.38 µM
